Test results as given in the CheMixHub drug solubility set.

Experiment: xn = mol fraction of the nth substance listed, in the solute-free solvent

O=C(O)c1ccc(C(=O)O)o1 + C1CCOC1 + O
solubility (g/100 g solution)
Conditions | 293.15 K | 298.15 K | 303.15 K | 308.15 K | 313.15 K | 318.15 K | 323.15 K | 328.15 K | 333.15 K
x2 = 0.1 | 1.53 | 1.63 | 1.73 | 1.9 | 2.08 | 2.35 | 2.63 | 2.88 | 3.15
x2 = 0.2 | 3.7 | 3.93 | 4.22 | 4.48 | 4.77 | 5.08 | 5.38 | 5.73 | 6.11
x2 = 0.3 | 4.89 | 5.24 | 5.6 | 5.94 | 6.31 | 6.69 | 7.1 | 7.45 | 7.84
x2 = 0.4 | 6.39 | 6.62 | 6.87 | 7.22 | 7.6 | 7.91 | 8.25 | 8.62 | 9.02
x2 = 0.5 | 6.7 | 6.95 | 7.21 | 7.48 | 7.76 | 8.1 | 8.47 | 8.86 | 9.32
x2 = 0.6 | 6.58 | 6.9 | 7.24 | 7.5 | 7.81 | 8.16 | 8.54 | 9.01 | 9.52
x2 = 0.7 | 6.04 | 6.39 | 6.76 | 7.09 | 7.43 | 7.77 | 8.14 | 8.5 | 8.9
x2 = 0.8 | 4.95 | 5.3 | 5.68 | 5.96 | 6.26 | 6.51 | 6.79 | 7.11 | 7.47
x2 = 0.9 | 3.55 | 3.67 | 3.81 | 3.98 | 4.16 | 4.33 | 4.51 | 4.74 | 4.98

Oc1ccc(Cl)c2cccnc12 + C1COCCO1 + CCO
solubility (g/100 g solution)
Conditions | 278.15 K | 283.15 K | 288.15 K | 293.15 K | 298.15 K | 303.15 K | 308.15 K | 313.15 K | 318.15 K | 323.15 K
x2 = 0.1156 | 2.02 | 2.27 | 2.73 | 3.17 | 3.66 | 4.34 | 5.1 | 5.96 | 7.04 | 8.35
x2 = 0.2585 | 3.35 | 3.86 | 4.46 | 5.19 | 6.15 | 7.28 | 8.38 | 9.82 | 11.4 | 13.3
x2 = 0.4396 | 4.92 | 5.68 | 6.53 | 7.56 | 8.72 | 10.3 | 11.9 | 13.8 | 15.9 | 18.2
x2 = 0.6765 | 6.81 | 7.83 | 8.96 | 10.3 | 11.8 | 13.8 | 15.8 | 17.9 | 20.5 | 23.3

O=C(O)c1ccc(C(=O)O)o1 + C1COCCO1 + O
solubility (g/100 g solution)
Conditions | 303.15 K | 308.15 K | 313.15 K | 318.15 K | 323.15 K | 328.15 K | 333.15 K | 338.15 K | 343.15 K
x2 = 0.1 | 1.85 | 1.98 | 2.15 | 2.38 | 2.63 | 2.92 | 3.24 | 3.48 | 3.73
x2 = 0.2 | 3.44 | 3.54 | 3.81 | 4.02 | 4.28 | 4.56 | 4.78 | 5.12 | 5.5
x2 = 0.3 | 3.8 | 4.14 | 4.34 | 4.76 | 5.21 | 5.62 | 6.07 | 6.46 | 7.05
x2 = 0.4 | 4.76 | 5.23 | 5.55 | 5.79 | 6.04 | 6.37 | 6.72 | 7.27 | 7.87
x2 = 0.5 | 4.37 | 4.77 | 5.03 | 5.38 | 5.75 | 6.1 | 6.48 | 6.97 | 7.5
x2 = 0.6 | 3.77 | 4.11 | 4.39 | 4.66 | 5 | 5.3 | 5.63 | 6.04 | 6.44
x2 = 0.7 | 3.03 | 3.32 | 3.51 | 3.71 | 3.94 | 4.25 | 4.48 | 4.89 | 5.36
x2 = 0.8 | 2.38 | 2.62 | 2.75 | 2.96 | 3.11 | 3.32 | 3.55 | 3.81 | 4.1
x2 = 0.9 | 1.3 | 1.42 | 1.54 | 1.73 | 1.93 | 2.11 | 2.35 | 2.61 | 2.87

O=C(O)c1cc([N+](=O)[O-])ccc1O + CC#N + O
solubility (g/100 g solution)
Conditions | 278.15 K | 283.15 K | 288.15 K | 293.15 K | 298.15 K | 303.15 K | 308.15 K | 313.15 K | 318.15 K | 323.15 K
x2 = 0.04651 | 0.16 | 0.194 | 0.238 | 0.291 | 0.357 | 0.446 | 0.552 | 0.685 | 0.838 | 1.03
x2 = 0.0989 | 0.399 | 0.59 | 0.782 | 0.967 | 1.18 | 1.42 | 1.71 | 2.02 | 2.34 | 2.73
x2 = 0.1583 | 1.06 | 1.33 | 1.68 | 2.11 | 2.54 | 3.11 | 3.71 | 4.38 | 5.16 | 6.05
x2 = 0.2264 | 2.36 | 2.8 | 3.34 | 4.03 | 4.74 | 5.57 | 6.57 | 7.63 | 8.9 | 10.3
x2 = 0.3051 | 3.97 | 4.82 | 5.77 | 6.86 | 8.19 | 9.58 | 11.1 | 12.7 | 14.5 | 16.6
x2 = 0.397 | 7.03 | 7.9 | 8.98 | 10.4 | 11.9 | 13.8 | 15.9 | 18.1 | 20.2 | 22.5
x2 = 0.506 | 9.09 | 10.3 | 11.8 | 13.6 | 15.5 | 17.5 | 19.6 | 21.8 | 23.9 | 26.2
x2 = 0.6372 | 10.7 | 11.8 | 13.5 | 15.5 | 17.8 | 19.9 | 21.9 | 24.7 | 26.9 | 28.9
x2 = 0.798 | 12 | 13.3 | 15 | 17.2 | 19.5 | 21.5 | 24.3 | 26.8 | 29.3 | 31.8

COC1=CC(=O)CC(C)C12Oc1c(Cl)c(OC)cc(OC)c1C2=O (stereo not drawn) + CC(=O)CC(C)C + CC(C)O
solubility (g/100 g solution)
Conditions | 283.15 K | 288.15 K | 293.15 K | 298.15 K | 303.15 K | 308.15 K | 313.15 K | 318.15 K | 323.15 K
x2 = 0.1 | 0.154 | 0.185 | 0.226 | 0.307 | 0.335 | 0.47 | 0.53 | 0.62 | 0.76
x2 = 0.2 | 0.251 | 0.304 | 0.345 | 0.441 | 0.514 | 0.683 | 0.713 | 0.852 | 1.01
x2 = 0.3 | 0.353 | 0.405 | 0.473 | 0.568 | 0.67 | 0.869 | 0.938 | 1.11 | 1.3
x2 = 0.4 | 0.433 | 0.519 | 0.591 | 0.73 | 0.812 | 1.04 | 1.09 | 1.27 | 1.46
x2 = 0.5 | 0.533 | 0.589 | 0.688 | 0.841 | 0.939 | 1.19 | 1.23 | 1.42 | 1.62
x2 = 0.6 | 0.595 | 0.655 | 0.751 | 0.902 | 1.03 | 1.27 | 1.33 | 1.5 | 1.72
x2 = 0.7 | 0.642 | 0.758 | 0.833 | 0.943 | 1.08 | 1.31 | 1.37 | 1.58 | 1.77
x2 = 0.8 | 0.675 | 0.753 | 0.823 | 0.973 | 1.1 | 1.33 | 1.39 | 1.59 | 1.79
x2 = 0.9 | 0.675 | 0.727 | 0.817 | 0.955 | 1.1 | 1.29 | 1.35 | 1.51 | 1.68

CC(=O)OC(c1ccccc1)C(Cl)(Cl)Cl (stereo not drawn) + CC(=O)O + O
solubility (g/100 g solution)
Conditions | 288.15 K | 293.15 K | 298.15 K | 303.15 K | 308.15 K | 313.15 K | 318.15 K | 323.15 K | 328.15 K
x2 = 0.4 | 0.229 | 0.34 | 0.495 | 0.65 | 0.966 | 1.43 | 1.81 | 2.64 | 3.12
x2 = 0.5 | 0.758 | 0.967 | 1.23 | 1.62 | 2.27 | 2.97 | 3.85 | 5.28 | 7.16
x2 = 0.6 | 1.45 | 2.06 | 2.67 | 3.47 | 4.47 | 5.57 | 7.52 | 10.1 | 13.4
x2 = 0.7 | 2.88 | 3.73 | 4.74 | 6.03 | 7.75 | 9.86 | 12.5 | 16.9 | 23.4
x2 = 0.8 | 4.78 | 6.15 | 7.58 | 9.47 | 12 | 15.1 | 19.5 | 25.6 | 33.9
x2 = 0.9 | 7.43 | 9.03 | 10.9 | 13.5 | 17 | 21.2 | 26.5 | 33.8 | 42.7

COC1=CC(=O)CC(C)C12Oc1c(Cl)c(OC)cc(OC)c1C2=O (stereo not drawn) + CC(C)=O + CC(C)O
solubility (g/100 g solution)
Conditions | 283.15 K | 288.15 K | 293.15 K | 298.15 K | 303.15 K | 308.15 K | 313.15 K | 318.15 K | 323.15 K
x2 = 0.1 | 0.176 | 0.236 | 0.261 | 0.31 | 0.375 | 0.463 | 0.602 | 0.688 | 0.843
x2 = 0.2 | 0.338 | 0.422 | 0.511 | 0.55 | 0.668 | 0.817 | 0.967 | 1.11 | 1.3
x2 = 0.3 | 0.587 | 0.663 | 0.787 | 0.871 | 1.04 | 1.22 | 1.41 | 1.64 | 1.96
x2 = 0.4 | 0.84 | 0.915 | 1.06 | 1.23 | 1.44 | 1.7 | 1.94 | 2.17 | 2.51
x2 = 0.5 | 1.23 | 1.4 | 1.5 | 1.62 | 1.85 | 2.16 | 2.51 | 2.8 | 3.19
x2 = 0.6 | 1.56 | 1.76 | 1.94 | 2.08 | 2.34 | 2.72 | 3.08 | 3.41 | 3.89
x2 = 0.7 | 1.81 | 2.09 | 2.35 | 2.55 | 2.87 | 3.3 | 3.65 | 4.05 | 4.58
x2 = 0.8 | 2.16 | 2.39 | 2.72 | 2.95 | 3.38 | 3.76 | 4.19 | 4.67 | 5.21
x2 = 0.9 | 2.56 | 2.71 | 3.08 | 3.33 | 3.78 | 4.3 | 4.68 | 5.15 | 5.53
